Common to all, as to format: biochemical
The target in one experiment is PLK3 (Homo sapiens, UniProt Q9H4B4). Nature of the experiment: PLK TR-FRET peptide assay, PLK3. The note with it: GST-PLK3, 15 min reaction, read-out: Plk3 IC50. On the technique in general: Time-resolved FRET reads energy transfer from a long-lived donor to a nearby acceptor.
For the next experiment, the target named is PLK1 (Homo sapiens, UniProt P53350). Briefly: PLK TR-FRET peptide assay, PLK1. The settings on record: GST-PLK1, 60 min reaction.
Another experiment concerns the target PLK2 (Homo sapiens, UniProt Q9NYY3). Briefly: PLK TR-FRET peptide assay, PLK2. The note with it: for IC50: PLK TR-FRET peptide assay, GST-PLK2, 60 min reaction, read-out: Plk2 IC50.

The IC50 is the point on the concentration scale where inhibition reaches its midpoint.

PLK3, sequence (Q9H4B4 whole entry): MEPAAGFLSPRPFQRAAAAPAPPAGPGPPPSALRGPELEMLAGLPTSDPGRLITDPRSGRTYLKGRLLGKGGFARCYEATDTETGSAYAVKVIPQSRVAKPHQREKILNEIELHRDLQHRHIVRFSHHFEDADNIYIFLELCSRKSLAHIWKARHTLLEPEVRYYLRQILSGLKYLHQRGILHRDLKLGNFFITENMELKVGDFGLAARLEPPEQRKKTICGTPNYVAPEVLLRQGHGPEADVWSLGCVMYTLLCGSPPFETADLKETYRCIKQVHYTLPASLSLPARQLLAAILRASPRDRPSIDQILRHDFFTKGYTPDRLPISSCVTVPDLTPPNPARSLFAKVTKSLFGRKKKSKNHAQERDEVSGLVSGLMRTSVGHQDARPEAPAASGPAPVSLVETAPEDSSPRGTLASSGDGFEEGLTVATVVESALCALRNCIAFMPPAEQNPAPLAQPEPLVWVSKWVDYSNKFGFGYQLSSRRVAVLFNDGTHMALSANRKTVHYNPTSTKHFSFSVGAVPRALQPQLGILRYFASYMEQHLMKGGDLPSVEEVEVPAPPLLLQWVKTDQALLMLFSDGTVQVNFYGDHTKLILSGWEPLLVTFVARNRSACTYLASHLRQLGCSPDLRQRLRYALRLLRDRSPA
PLK1, sequence (P53350 whole entry): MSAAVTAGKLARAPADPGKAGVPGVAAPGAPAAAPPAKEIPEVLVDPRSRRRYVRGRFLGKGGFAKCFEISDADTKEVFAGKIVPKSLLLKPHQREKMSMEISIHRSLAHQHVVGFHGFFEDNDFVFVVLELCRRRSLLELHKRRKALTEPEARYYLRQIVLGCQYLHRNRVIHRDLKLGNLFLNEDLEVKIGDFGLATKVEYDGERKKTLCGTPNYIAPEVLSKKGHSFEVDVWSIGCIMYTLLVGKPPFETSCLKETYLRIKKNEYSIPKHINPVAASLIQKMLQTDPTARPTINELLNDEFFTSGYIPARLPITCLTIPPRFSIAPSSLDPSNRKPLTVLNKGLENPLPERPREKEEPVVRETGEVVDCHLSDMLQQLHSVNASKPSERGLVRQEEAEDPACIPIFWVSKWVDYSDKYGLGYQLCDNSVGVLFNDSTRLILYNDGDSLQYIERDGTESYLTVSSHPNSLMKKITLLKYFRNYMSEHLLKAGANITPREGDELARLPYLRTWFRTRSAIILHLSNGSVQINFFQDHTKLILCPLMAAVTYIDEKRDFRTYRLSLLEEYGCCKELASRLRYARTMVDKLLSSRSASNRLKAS
PLK2, sequence (Q9NYY3 whole entry): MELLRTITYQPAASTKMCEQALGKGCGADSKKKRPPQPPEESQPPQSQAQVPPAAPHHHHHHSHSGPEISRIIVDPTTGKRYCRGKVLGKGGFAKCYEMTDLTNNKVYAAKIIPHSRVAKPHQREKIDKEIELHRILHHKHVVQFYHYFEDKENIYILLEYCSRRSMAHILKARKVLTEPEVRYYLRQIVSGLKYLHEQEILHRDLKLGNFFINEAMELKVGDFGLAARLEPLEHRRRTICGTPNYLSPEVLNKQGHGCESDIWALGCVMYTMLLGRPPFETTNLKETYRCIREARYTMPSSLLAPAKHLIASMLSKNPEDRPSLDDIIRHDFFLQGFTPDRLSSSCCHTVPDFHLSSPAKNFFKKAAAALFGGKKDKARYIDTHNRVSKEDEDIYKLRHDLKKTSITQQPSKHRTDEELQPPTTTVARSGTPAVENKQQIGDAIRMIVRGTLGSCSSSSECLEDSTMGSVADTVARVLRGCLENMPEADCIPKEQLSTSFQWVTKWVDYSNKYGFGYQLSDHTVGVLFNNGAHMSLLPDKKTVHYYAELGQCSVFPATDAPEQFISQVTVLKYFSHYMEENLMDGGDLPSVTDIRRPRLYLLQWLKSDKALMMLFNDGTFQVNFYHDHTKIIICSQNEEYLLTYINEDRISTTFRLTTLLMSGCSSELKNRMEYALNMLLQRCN

Consider `CC[C@@H]1C(=O)N(C)c2cnc(-c3ccncc3CNC(=O)c3ccccc3)nc2N1C(C)C` [Example 130, (R)—N-((4-(7-ethyl-8-isopropyl-5-methyl-6-oxo-5,6,7,8-tetrahydropteridin-2-yl)pyridin-3-yl)methyl)benzamide], for which the IC50 on PLK3, on PLK1 and at PLK2 was above 50 µM each time.
Consider `CC[C@@H]1C(=O)N(C)c2cnc(-n3ccnc3C3CCOCC3)nc2N1C1CCCC1` [Example 90, (R)-8-cyclopentyl-7-ethyl-5-methyl-2-(2-(tetrahydro-2H-pyran-4-yl)-1H-imidazol-1-yl)-7,8-dihydropteridin-6(5H)-one], for which the IC50 at PLK3 was 10 to 50 µM; against PLK1, 1 to 10 µM; on PLK2, 1 to 10 µM.
Take `CC[C@@H]1C(=O)N(C)c2cnc(-c3ccncc3N)nc2N1C(C)C` [Example 93, (R)-2-(3-aminopyridin-4-yl)-7-ethyl-8-isopropyl-5-methyl-7,8-dihydropteridin-6(5H)-one]: the IC50 on PLK3 is above 50 µM; against PLK1, 1 to 10 µM; at PLK2, below 1 µM.
For `CC[C@H]1C(=O)N(C)c2cnc(-n3ccnc3-c3ccc(F)cc3)nc2N1c1cccc(C#N)c1` [Example 359, (S)-3-(7-ethyl-2-(2-(4-fluorophenyl)-1H-imidazol-1-yl)-5-methyl-6-oxo-6,7-dihydropteridin-8(5H)-yl)benzonitrile] the same measures were 10 to 50 µM, above 50 µM and 1 to 10 µM.
For `CC[C@@H]1C(=O)N(C)c2cnc(-c3ccncc3-c3ccccc3)nc2N1C1CCCC1` [Example 85, (R)-8-cyclopentyl-7-ethyl-5-methyl-2-(3-phenylpyridin-4-yl)-7,8-dihydropteridin-6(5H)-one], in that order: below 1 µM, below 1 µM and below 1 µM.
For `CC[C@@H]1C(=O)N(C)c2cnc(-n3ccnc3)nc2N1C1CCOCC1` [Example 295, (R)-7-ethyl-2-(1H-imidazol-1-yl)-5-methyl-8-(tetrahydro-2H-pyran-4-yl)-7,8-dihydropteridin-6(5H)-one] the same measures were 10 to 50 µM, 1 to 10 µM and 1 to 10 µM.
As for `CC[C@@H]1C(=O)N(C)c2cnc(-n3ccnc3-c3cc(F)cc(C(F)(F)F)c3)nc2N1C1CCC1` [Example 174, (R)-8-cyclobutyl-7-ethyl-2-(2-(3-fluoro-5-(trifluoromethyl)phenyl)-1H-imidazol-1-yl)-5-methyl-7,8-dihydropteridin-6(5H)-one], the results for the IC50 at PLK3, on PLK1 and at PLK2 were 10 to 50 µM, 1 to 10 µM and below 1 µM, respectively.
For `CCC12CCCCN1c1nc(-n3ccnc3-c3ccc(F)cc3F)ncc1N(C)C2=O` (racemic) [Example 257, (+/−) 2-(2-(2,4-difluorophenyl)-1H-imidazol-1-yl)-6a-ethyl-5-methyl-7,8,9,10-tetrahydro-5H-pyrido[2,1-h]pteridin-6(6aH)-one], in that order: 10 to 50 µM, 10 to 50 µM and below 1 µM.
On to `CC[C@@H]1C(=O)N(C)c2cnc(-c3cnoc3-c3nccs3)nc2N1C(C)C` [Example 187, (R)-7-ethyl-8-isopropyl-5-methyl-2-(5-(thiazol-2-yl)isoxazol-4-yl)-7,8-dihydropteridin-6(5H)-one], for which the IC50 at PLK3, against PLK1 and on PLK2 was 10 to 50 µM in each case.
For the molecule `CC[C@@H]1C(=O)N(C)c2cnc(-n3ccnc3-c3cccnc3)nc2N1C1CCCC1` [Example 67, (R)-8-cyclopentyl-7-ethyl-5-methyl-2-(2-(pyridin-3-yl)-1H-imidazol-1-yl)-7,8-dihydropteridin-6(5H)-one], the IC50 at PLK3, at PLK1 and on PLK2 was below 1 µM each time.
Take `CCC12CCCCN1c1nc(-n3ccnc3)ncc1N(C)C2=O` (racemic) [Example 283, (+/−) 6a-ethyl-2-(1H-imidazol-1-yl)-5-methyl-7,8,9,10-tetrahydro-5H-pyrido[2,1-h]pteridin-6(6aH)-one]: the half-inhibitory concentration (IC50) on PLK3 was above 50 µM; at PLK1 it was above 50 µM; at PLK2 it was 10 to 50 µM.
With `CC[C@@H]1C(=O)N(C)c2cnc(-c3cncnc3-c3ccc(C(F)(F)F)cc3)nc2N1C(C)C` [Example 168, (R)-7-ethyl-8-isopropyl-5-methyl-2-(4-(4-(trifluoromethyl)phenyl)pyrimidin-5-yl)-7,8-dihydropteridin-6(5H)-one], the IC50 at PLK3 was above 50 µM; at PLK1 it was 10 to 50 µM; at PLK2 it was 10 to 50 µM.
For `CC[C@@H]1C(=O)N(C)c2cnc(-c3ccncc3-c3ccccc3)nc2N1C1CCC1` [Example 96, (R)-8-cyclobutyl-7-ethyl-5-methyl-2-(3-phenylpyridin-4-yl)-7,8-dihydropteridin-6(5H)-one], the IC50 at PLK3, against PLK1 and at PLK2 was below 1 µM throughout.
With `CC[C@@H]1C(=O)N(C)c2cnc(-c3sc(C#N)nc3-c3ccc(F)cc3)nc2N1C(C)C` [Example 354, (R)-5-(7-ethyl-8-isopropyl-5-methyl-6-oxo-5,6,7,8-tetrahydropteridin-2-yl)-4-(4-fluorophenyl)thiazole-2-carbonitrile], the IC50 is below 1 µM on PLK3, 1 to 10 µM against PLK1 and below 1 µM at PLK2.
`CC[C@@]12CCCCN1c1nc(-n3ccnc3-c3ccccc3)ncc1N(C)C2=O` [Example 262, (S)-6a-ethyl-5-methyl-2-(2-phenyl-1H-imidazol-1-yl)-7,8,9,10-tetrahydro-5H-pyrido[2,1-h]pteridin-6(6aH)-one]: the IC50 at PLK3 was 1 to 10 µM; against PLK1 it was 1 to 10 µM; on PLK2 it was below 1 µM. In addition, on PLK2 (compared with the opposite enantiomer), the “relative PLK2 activity of the enantiomers” value is listed as “more active compound”.
In the case of `CC[C@@]12CCCN1c1nc(-n3ccnc3-c3cccc(F)c3)ncc1N(C)C2=O` [Example 225, (S)-6a-ethyl-2-(2-(3-fluorophenyl)-1H-imidazol-1-yl)-5-methyl-6a,7,8,9-tetrahydropyrrolo[2,1-h]pteridin-6(5H)-one], the IC50 is 10 to 50 µM at PLK3, 1 to 10 µM against PLK1 and below 1 µM on PLK2.
Take `CC[C@@]12CCCN1c1nc(-n3ccnc3-c3nccc4ccccc34)ncc1N(C)C2=O` [Example 206, (S)-6a-ethyl-2-(2-(isoquinolin-1-yl)-1H-imidazol-1-yl)-5-methyl-6a,7,8,9-tetrahydropyrrolo[2,1-h]pteridin-6(5H)-one]: the IC50 is 10 to 50 µM at PLK3, above 50 µM at PLK1 and 1 to 10 µM at PLK2.
Regarding `[2H]C([2H])([2H])N1C(=O)[C@H](C([2H])([2H])C([2H])([2H])[2H])N(C([2H])(C([2H])([2H])[2H])C([2H])([2H])[2H])c2nc(-n3ccnc3-c3cccc(F)c3)ncc21` [Example 201, (S)-7-perdeuteroethyl-2-(2-(3-fluorophenyl)-1H-imidazol-1-yl)-8-perdeuteroisopropyl-5-trideuteromethyl-7,8-dihydropteridin-6(5H)-one], the IC50 on PLK3 was above 50 µM; at PLK1 it was 10 to 50 µM; on PLK2, 1 to 10 µM.
For `CC[C@@H]1C(=O)N(C)c2cnc(-c3ccncc3NC(=O)OC)nc2N1C1CCCC1` [Example 114, (R)-methyl 4-(8-cyclopentyl-7-ethyl-5-methyl-6-oxo-5,6,7,8-tetrahydropteridin-2-yl)pyridin-3-ylcarbamate] the same measures were 10 to 50 µM, 1 to 10 µM and below 1 µM.
Turning to `CC[C@@H]1C(=O)N(C)c2cnc(-n3ccnc3-c3ccc(F)cn3)nc2N1C1CCC1` [Example 224, (R)-8-cyclobutyl-7-ethyl-2-(2-(5-fluoropyridin-2-yl)-1H-imidazol-1-yl)-5-methyl-7,8-dihydropteridin-6(5H)-one], the values for the IC50 at PLK3, against PLK1 and at PLK2 were 10 to 50 µM, 1 to 10 µM and below 1 µM, respectively.
For `CCC12CCCCN1c1nc(-n3ccnc3-c3cc(F)c(F)c(F)c3)ncc1N(C)C2=O` (racemic) [Example 256, (+/−) 6a-ethyl-5-methyl-2-(2-(3,4,5-trifluorophenyl)-1H-imidazol-1-yl)-7,8,9,10-tetrahydro-5H-pyrido[2,1-h]pteridin-6(6aH)-one] the same measures were above 50 µM, above 50 µM and below 1 µM.
For the molecule `CC[C@@H]1C(=O)N(C)c2cnc(-c3ccncc3)nc2N1C(C)C` [Example 23, (R)-7-ethyl-8-isopropyl-5-methyl-2-(pyridin-4-yl)-7,8-dihydropteridin-6(5H)-one], the IC50 at PLK3 is above 50 µM; against PLK1 it was 1 to 10 µM; on PLK2, below 1 µM.
Take `CC[C@@H]1C(=O)N(C)c2cnc(-c3ccccc3-c3ccccc3)nc2N1C1CCCC1` [Example 70, (R)-2-(biphenyl-2-yl)-8-cyclopentyl-7-ethyl-5-methyl-7,8-dihydropteridin-6(5H)-one]: the IC50 on PLK3 and against PLK1 was below 1 µM throughout.
On to `CC[C@@]12CCCN1c1nc(-n3ccnc3-c3cccc(Br)c3)ncc1N(C)C2=O` [Example 252, (S)-2-(2-(3-bromophenyl)-1H-imidazol-1-yl)-6a-ethyl-5-methyl-6a,7,8,9-tetrahydropyrrolo[2,1-h]pteridin-6(5H)-one], for which the values for the IC50 on PLK3 and at PLK1 were 10 to 50 µM and 1 to 10 µM, respectively.
For `CC[C@@H]1C(=O)N(C)c2cnc(-n3ccnc3)nc2N1C1CC(F)(F)C1` [Example 303, (R)-8-(3,3-difluorocyclobutyl)-7-ethyl-2-(1H-imidazol-1-yl)-5-methyl-7,8-dihydropteridin-6(5H)-one] the same measures were 10 to 50 µM and 10 to 50 µM.

These data come from patent US8541418B2, “Inhibitors of polo-like kinase” (Elan Pharmaceutical, Inc., priority 2009, dated 2013).
